In US11591369B2, “Alpha(v)beta(6) integrin-binding peptides and methods of use thereof” (priority 2018, dated 2023):
Values joined by “and” are separate entries in the source; they are usually repeats but may differ in a detail not shown here. Equal values may be shown once. Read-outs that look alike come from different tables or passages of the source. Where a SMILES comes first, the peptide text is derived from it. Primed or numbered codes have the meaning given here. Where no end group is shown, it is not given here. [ ]: non-standard residue; d: D form. The star is where a group is joined. (18F)FB = [18F] fluorobenzoyl group, O=C(c1ccc([18F])cc1)*; (18F)FB″ = [18F]fluorobenzoyl, O=C(c1ccc([18F])cc1)*; PEG12′ = polyethylene glycol, 12 units; PEG28″ = polyethylene glycol, 28 units; PEG2′ = polyethylene glycol, 2 units; PEG4′ = polyethylene glycol, 4 units; PEG8′ = polyethylene glycol, 8 units; Benzoyl(4-F) = O=C(c1ccc(F)cc1)*; PEG28′ = polyethylene glycol-28; Amb = aminomethylbenzoyl

What was measured:
[1] = target: T1, αvβ8 integrin (Homo sapiens, UniProt P06756+P26012); test: Competitive binding ELISA, αvβ8 integrin
T1 construct: All purified integrins were purchased from R&D Systems (MN, USA); purchased R&D Systems (MN, USA)

[2] = target: T2, αvβ3 integrin (Homo sapiens, UniProt P05106+P06756); test: Competitive binding ELISA, αvβ3 integrin
T2 construct: All purified integrins were purchased from R&D Systems (MN, USA); purchased R&D Systems (MN, USA)

[3] = target: T3, αvβ6 integrin (Homo sapiens, UniProt P06756+P18564); test: Competitive binding ELISA against biotinylated LAP (BtLAP), αvβ6 integrin; settings: for IC50 αvβ6: competitive ELISA vs BtLAP, mean ± SD, n = 3
T3 construct: All purified integrins were purchased from R&D Systems (MN, USA); purchased R&D Systems (MN, USA)

[4] = tested on: DX3puroβ6 (αvβ6+) cells; test: [18F]-radiolabeled peptide cell binding and internalization, DX3puroβ6 (αvβ6+) cells; type: cell-based, human; design: fold increase in binding to DX3puroβ6 (αvβ6+) cells / fold lower binding to DX3puroβ6 (αvβ6+) cells: reference not given here; settings: for binding to DX3puroβ6 (αvβ6+) cells: % of total activity, 37° C.
[5] = 37° C., 1 hour, radio-HPLC
[6] = Circular dichroism (CD) spectroscopy; type: physicochemical; settings: for % Helical Content CD Buffer: 25 mM phosphate + 100 mM NaF; for % Helical Content CD Buffer + 30% TFE: buffer with 30% trifluoroethanol

Row | Compound | IC50 [3] [µM] | binding to DX3puroβ6 (αvβ6+) cells ([4]; 1 hour) | intact peptide in mouse serum [5] | percent internalized relative to the amount bound to DX3puroβ6 (αvβ6+) cells ([4]; 1 hour) | also measured
1 | CC(C)C[C@H](NC(=O)[C@H](CC(=O)O)NC(=O)[C@H](CO)NC(=O)[C@H](CCCNC(=N)N)NC(=O)c1ccc(F)cc1)C(=O)N[C@H](C(=O)N1CCC[C@H]1C(=O)N[C@@H](CC(C)C)C(=O)N[C@@H](Cc1ccccc1)C(=O)N[C@@H](CCC(N)=O)C(=O)N[C@@H](CCCCN)C(=O)N[C@H](C(=O)N[C@@H](C)C(=O)N[C@@H](CCCNC(=N)N)C(=O)N[C@H](C(N)=O)[C@@H](C)O)C(C)C)[C@@H](C)O [KL3Q] ({Benzoyl(4-F)}-RSDLTPLFQKVART-NH2) | 0.0087 ± 0.0007 | – | – | – | IC50 [1]: > 100 µM; IC50 [2]: > 100 µM
2 | CC(C)C[C@H](NC(=O)[C@H](CC(=O)O)NC(=O)[C@H](CO)NC(=O)[C@H](CCCNC(=N)N)NC(=O)c1ccc(F)cc1)C(=O)N[C@H](C(=O)N1CCC[C@H]1C(=O)N[C@@H](CC(C)C)C(=O)N[C@@H](Cc1ccccc1)C(N)=O)[C@@H](C)O [KL3] ({Benzoyl(4-F)}-RSDLTPLF-NH2) | 1.7 ± 0.5 | 0.7±0.2% | – | – | IC50 [1]: > 100 µM; DX3puroβ6 (αvβ6+)/DX3puro (αvβ6−) selectivity ratio ([4]; cell binding, 1 hour): 0.9±0.5 :1; IC50 [2]: > 100 µM
3 | CC(C)C[C@H](NC(=O)[C@H](Cc1ccc(O)cc1)NC(=O)[C@@H](NC(=O)[C@H](CC(C)C)NC(=O)[C@H](CC(=O)O)NC(=O)CNC(=O)[C@@H](NC(=O)CCOCCOCCOCCOCCOCCOCCOCCOCCOCCOCCOCCOCCOCCOCCOCCOCCOCCOCCOCCOCCOCCOCCOCCOCCOCCOCCOCCOCCNC(=O)c1ccc(F)cc1)C(C)C)[C@@H](C)O)C(=O)N[C@@H](CCCCN)C(=O)N[C@@H](CCC(N)=O)C(=O)N[C@@H](CCCCN)C(=O)N[C@H](C(=O)N[C@@H](C)C(=O)N[C@@H](CCCNC(=N)N)C(=O)N[C@H](C(=O)NCCOCCOCCOCCOCCOCCOCCOCCOCCOCCOCCOCCOCCOCCOCCOCCOCCOCCOCCOCCOCCOCCOCCOCCOCCOCCOCCOCCOCCC(N)=O)[C@@H](C)O)C(C)C [N-[^18F]T1-e] | – | 1.5±0.1% | > 99% | 25.7±2.2% and 25.7±2.7% | intact peptide in mouse serum ([5]; 60 min): 100%
4 | CC(C)C[C@H](NC(=O)[C@H](Cc1ccc(O)cc1)NC(=O)[C@@H](NC(=O)[C@H](CC(C)C)NC(=O)[C@H](CC(=O)O)NC(=O)CNC(=O)[C@@H](NC(=O)c1ccc(F)cc1)C(C)C)[C@@H](C)O)C(=O)N[C@@H](CCCCN)C(=O)N[C@@H](CCCCN)C(=O)N[C@@H](CCCCN)C(=O)N[C@H](C(=O)N[C@@H](C)C(=O)N[C@@H](CCCNC(=N)N)C(=O)N[C@H](C(N)=O)[C@@H](C)O)C(C)C [P1K-b] | 0.01 ± 0.002 | – | – | – | IC50 [1]: > 100 µM; IC50 [2]: > 100 µM; binding selectivity for αvβ6 over αvβ3 and αvβ8 integrins ([3]; ELISA IC50 ratio): 10,000 :1; IC50 αvβ6 [3]: low nanomolar
5 | CC(C)C[C@H](NC(=O)[C@H](Cc1ccc(O)cc1)NC(=O)[C@@H](NC(=O)[C@H](CC(C)C)NC(=O)[C@H](CC(=O)O)NC(=O)CNC(=O)[C@@H](NC(=O)c1ccc(F)cc1)C(C)C)[C@@H](C)O)C(=O)N[C@@H](CCCCN)C(=O)N[C@@H](CCCNC(=N)N)C(=O)N[C@@H](CCCCN)C(=O)N[C@@H](C)C(=O)N[C@H](C(=O)N[C@H](C(=O)N[C@@H](CCC(N)=O)C(N)=O)C(C)C)[C@@H](C)O [P1Q-Scrb] ({Benzoyl(4-F)}-VGDLTYLKRKATVQ-NH2) | 0.014 ± 0.002 | – | – | – | IC50 [1]: 2.9 ± 0.74 µM; IC50 [2]: > 100 µM; IC50 αvβ6 [3]: low nanomolar
6 | CC(C)C[C@H](NC(=O)[C@H](CCCNC(=N)N)NC(=O)CNC(=O)[C@H](CC(C)C)NC(=O)[C@H](CC(=O)O)NC(=O)CNC(=O)[C@H](CCCNC(=N)N)NC(=O)CNC(=O)c1ccc(F)cc1)C(N)=O [SFLAP3-8mer, reference compound] ({Benzoyl(4-F)}-GRGDLGRL-NH2) | 0.089 ± 0.0065 | – | – | – | DX3puroβ6 (αvβ6+)/DX3puro (αvβ6−) selectivity ratio ([4]; cell binding, 1 hour): 1.4 ± 0.2:1; % Helical Content CD Buffer [6]: 11%; % Helical Content CD Buffer + 30% TFE [6]: 6.2%
7 | CC(C)C[C@H](NC(=O)[C@H](CC(=O)O)NC(=O)CNC(=O)[C@H](CCCNC(=N)N)NC(=O)CNC(=O)c1ccc(F)cc1)C(=O)NCC(=O)N[C@@H](CCCNC(=N)N)C(=O)N[C@@H](CC(C)C)C(=O)N[C@@H](C)C(=O)N[C@@H](CCC(N)=O)C(=O)N[C@@H](CCCCN)C(=O)N[C@H](C(=O)N[C@@H](C)C(=O)N[C@@H](CCCNC(=N)N)C(=O)N[C@H](C(N)=O)[C@@H](C)O)C(C)C [SFLAP3-15mer] ({Benzoyl(4-F)}-GRGDLGRLAQKVART-NH2) | 0.0013 ± 0.0002 | – | – | – | DX3puroβ6 (αvβ6+)/DX3puro (αvβ6−) selectivity ratio ([4]; cell binding, 1 hour): 3.9 ± 0.4:1; % Helical Content CD Buffer [6]: 13.4%; % Helical Content CD Buffer + 30% TFE [6]: 31.6%
8 | CC(C)C[C@H](NC(=O)[C@H](Cc1ccc(O)cc1)NC(=O)[C@@H](NC(=O)[C@H](CC(C)C)NC(=O)[C@H](CC(=O)O)NC(=O)CNC(=O)[C@@H](NC(=O)c1ccc(F)cc1)C(C)C)[C@@H](C)O)C(=O)N[C@@H](CCCCN)C(=O)N[C@@H](CCC(N)=O)C(=O)N[C@@H](CCCCN)C(=O)N[C@H](C(=O)N[C@@H](C)C(=O)N[C@@H](CCCNC(=N)N)C(=O)N[C@H](C(=O)NCCOCCOCCOCCOCCOCCOCCOCCOCCOCCOCCOCCOCCOCCOCCOCCOCCOCCOCCOCCOCCOCCOCCOCCOCCOCCOCCOCCOCCC(N)=O)[C@@H](C)O)C(C)C [T1] | – | 18.1±0.8% | 61% | – | DX3puroβ6 (αvβ6+)/DX3puro (αvβ6−) selectivity ratio [4]: 41.7±5.3 :1
9 | RGDLADLRK([^18F]FB) (RGDLADLRK((18F)FB″)) [[^18F]P3] | – | 10.8±1.4% | 0% | 4.3±0.6% | –
10 | VGDLTYLKK([^18F]FB) (VGDLTYLKK((18F)FB″)) [[^18F]P1] | – | 12.8±1.9% | 25% and < 25% | 3.7±0.6% | –
11 | VGDLTYLKK([^18F]FB)KVART (VGDLTYLKK((18F)FB″)KVART) [[^18F]P1K-a] | – | 6.2±1.3% | > 99% | – | –
12 | [^18F]FB-Amb-VGDLTYLKQKVART-PEG28 ({(18F)FB″-Amb}-VGDLTYLKQKVART[PEG28′]) [N-[^18F]T1-f] | – | 6.8±0.2% | < 50% | 25.2±2.4% | DX3puroβ6 (αvβ6+)/DX3puro (αvβ6−) selectivity ratio [4]: 3.2±0.4 :1; fold loss in selectivity for DX3puroβ6 (αvβ6+) cells [4]: 13 fold; fold decline in binding to DX3puroβ6 (αvβ6+) cells ([4]; compared to the parent T1): 3 fold
13 | [^18F]FB-PEG2-VGDLTYLKQKVART-PEG28 ({(18F)FB″-PEG2′}-VGDLTYLKQKVART[PEG28″]) [N-[^18F]T1-a] | – | – | 65% | 31.1±7.2% | –
14 | [^18F]FB-PEG4-VGDLTYLKQKVART-PEG28 ({(18F)FB″-PEG4′}-VGDLTYLKQKVART[PEG28″]) [N-[^18F]T1-b] | – | – | – | 33.9±7.9% | intact peptide in mouse serum ([5]; 60 min): 72% and 75%
15 | [^18F]FB-PEG8-VGDLTYLKQKVART-PEG28 ({(18F)FB″-PEG8′}-VGDLTYLKQKVART[PEG28″]) [N-[^18F]T1-c] | – | – | 91% | 36.9±3% | –
16 | [^18F]FB-PEG12-VGDLTYLKQKVART-PEG28 ({(18F)FB″-PEG12′}-VGDLTYLKQKVART[PEG28″]) [N-[^18F]T1-d] | – | – | 82% | 32±13% | –
17 | [^18F]FB-PEG28Amb-VGDLTYLKQKVART-PEG28 ({(18F)FB-PEG28′-Amb}-VGDLTYLKQKVART[PEG28′]) [N-[^18F]T1-g] | – | 3±0.2% | 90% | 43.1±4.4% | DX3puroβ6 (αvβ6+)/DX3puro (αvβ6−) selectivity ratio [4]: 5.7±0.06 :1 and 5.7±0.05 :1; fold loss in selectivity for DX3puroβ6 (αvβ6+) cells [4]: 7 fold; fold lower binding to DX3puroβ6 (αvβ6+) cells [4]: 2 fold
18 | [^18F]FB-RGDLADLRQKVART ({(18F)FB″}-RGDLADLRQKVART) [N-[^18F]P3Q] | – | 20±0.4% and 20±0.2% and 20% | 16% | 12.4±3.6% | –
19 | [^18F]FB-RGDLTYLKQKVART-PEG28 ({(18F)FB″}-RGDLTYLKQKVART[PEG28′]) [N-[^18F]T1-V1R] | – | 34.2±0.2% | 54% | 11.1±2.6% | DX3puroβ6 (αvβ6+)/DX3puro (αvβ6−) selectivity ratio [4]: 11.1±0.5 :1; fold increase in binding to DX3puroβ6 (αvβ6+) cells [4]: 6 fold
20 | [^18F]FB-VGDLTYLKQKVART-PEG28 ({(18F)FB″}-VGDLTYLKQKVART[PEG28′]) [N-[^18F]T1] | – | 18.1±0.8% | 61% | – | DX3puroβ6 (αvβ6+)/DX3puro (αvβ6−) selectivity ratio [4]: 41.7±5.3 :1; fold increase in binding to DX3puroβ6 (αvβ6+) cells [4]: 3 fold
